What was measured:
[1] = test system: recombinant NL4-3 virus (nef section replaced with Renilla luciferase gene) in MT-2 cells; test: HIV cell culture assay (antiviral activity, luciferase readout); type: cell-based; details: Renilla, NL43, MT-2 cells infected for 4-5 days with recombinant NL4-3 Renilla luciferase virus
How it was run: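 Antiviral EC50 derived from luciferase signal using the exponential median effect equation. Infection of MT-2 cells ran 4-5 days alongside serial dilutions of compound, with virus generated by proviral clone transfection of 293T cells.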

[2] = Compound cytotoxicity, XTT-based colorimetric assay; type: cell-based; details: human; uninfected MT2 cells, day 4, XTT; read-out: CC50
How it was run: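 CC50 derived from XTT colorimetric signal measured on day 4 in MT2 cells that were not infected. All other steps followed the antiviral assay protocol.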

Compound: Cc1cc(C2CCC(F)(F)CC2)nc2nc([C@H](Cc3cc(F)cc(F)c3)NC(=O)Cn3nc(C(F)F)c4c3C(F)(F)[C@@H]3C[C@H]43)n(-c3ccc(Cl)c4c(NS(C)(=O)=O)nn(CCN5CCC(F)CC5)c34)c(=O)c12 (atropisomer, axis not shown; (P)) [Example 270, N-[(1S)-1-[(3P)-3-{4-chloro-1-[2-(4-fluoropiperidin-1-yl)ethyl]-3-methanesulfonamido-1H-indazol-7-yl}-7-(4,4-difluorocyclohexyl)-5-methyl-4-oxo-3H,4H-pyrido[2,3-d]pyrimidin-2-yl]-2-(3,5-difluorophenyl)ethyl]-2-[(2S,4R)-9-(difluoromethyl)-5,5-difluoro-7,8-diazatricyclo[4.3.0.0^2,^4]nona-1(6),8-dien-7-yl]acetamide]
- EC50 [1]: 0.011 nM
- CC50 at 4 days [2]: > 50 nM

Compound: Cc1cc(C2CCC(F)(F)CC2)nc2nc([C@H](Cc3cc(F)cc(F)c3)NC(=O)Cn3nc(C(F)F)c4c3C(F)(F)[C@@H]3C[C@H]43)n(-c3ccc(Cl)c4c(NS(C)(=O)=O)nn(CCN5CCC(C)(F)CC5)c34)c(=O)c12 (atropisomer, axis not shown; (P)) [Example 271, N-[(1S)-1-[(3P)-3-{4-chloro-1-[2-(4-fluoro-4-methylpiperidin-1-yl)ethyl]-3-methanesulfonamido-1H-indazol-7-yl}-7-(4,4-difluorocyclohexyl)-5-methyl-4-oxo-3H,4H-pyrido[2,3-d]pyrimidin-2-yl]-2-(3,5-difluorophenyl)ethyl]-2-[(2S,4R)-9-(difluoromethyl)-5,5-difluoro-7,8-diazatricyclo[4.3.0.0^2,^4]nona-1(6),8-dien-7-yl]acetamide]
- EC50 [1]: 0.015 nM
- CC50 at 4 days [2]: > 50 nM

Compound: Cc1cc(C2CCC(F)(F)CC2)nc2nc([C@H](Cc3cc(F)cc(F)c3)NC(=O)Cn3nc(C4CC4)c4c3C[C@@H]3C[C@H]43)n(-c3ccc(Cl)c4c(NS(C)(=O)=O)nn(CCN5CCCC5)c34)c(=O)c12 (atropisomer, axis not shown; (P)) [Example 273, N-[(1S)-1-[(3P)-3-{4-chloro-3-methanesulfonamido-1-[2-(pyrrolidin-1-yl)ethyl]-1H-indazol-7-yl}-7-(4,4-difluorocyclohexyl)-5-methyl-4-oxo-3H,4H-pyrido[2,3-d]pyrimidin-2-yl]-2-(3,5-difluorophenyl)ethyl]-2-[(2S,4S)-9-cyclopropyl-7,8-diazatricyclo[4.3.0.0^2,^4]nona-1(6),8-dien-7-yl]acetamide]
- EC50 [1]: 0.02 nM
- CC50 at 4 days [2]: > 50 nM

Compound: Cc1cc(C2CCC(F)(F)CC2)nc2nc([C@H](Cc3cc(F)cc(F)c3)NC(=O)Cn3nc(C4CC4)c4c3C[C@@H]3C[C@H]43)n(-c3ccc(Cl)c4c(NS(C)(=O)=O)nn(CCN5CC(C(F)F)C5)c34)c(=O)c12 (atropisomer, axis not shown; (P)) [Example 275]
- EC50 [1]: 0.012 nM
- CC50 at 4 days [2]: > 50 nM

Compound: Cc1cc(C2CCC(F)(F)CC2)nc2nc([C@H](Cc3cc(F)cc(F)c3)NC(=O)Cn3nc(C4CC4)c4c3C[C@@H]3C[C@H]43)n(-c3ccc(Cl)c4c(NS(C)(=O)=O)nn(CCN5CCCCC5)c34)c(=O)c12 (atropisomer, axis not shown; (P)) [Example 276, N-[(1S)-1-[(3P)-3-{4-chloro-3-methanesulfonamido-1-[2-(piperidin-1-yl)ethyl]-1H-indazol-7-yl}-7-(4,4-difluorocyclohexyl)-5-methyl-4-oxo-3H,4H-pyrido[2,3-d]pyrimidin-2-yl]-2-(3,5-difluorophenyl)ethyl]-2-[(2S,4S)-9-cyclopropyl-7,8-diazatricyclo[4.3.0.0^2,^4]nona-1(6),8-dien-7-yl]acetamide]
- EC50 [1]: 0.016 nM
- CC50 at 4 days [2]: > 50 nM

Compound: Cc1cc(C2CCC(F)(F)CC2)nc2nc([C@H](Cc3cc(F)cc(F)c3)NC(=O)Cn3nc(C4CC4)c4c3C[C@@H]3C[C@H]43)n(-c3ccc(Cl)c4c(NS(C)(=O)=O)nn(CCN5CCC(F)CC5)c34)c(=O)c12 (atropisomer, axis not shown; (P)) [Example 277, N-[(1S)-1-[(3P)-3-{4-chloro-1-[2-(4-fluoropiperidin-1-yl)ethyl]-3-methanesulfonamido-1H-indazol-7-yl}-7-(4,4-difluorocyclohexyl)-5-methyl-4-oxo-3H,4H-pyrido[2,3-d]pyrimidin-2-yl]-2-(3,5-difluorophenyl)ethyl]-2-[(2S,4S)-9-cyclopropyl-7,8-diazatricyclo[4.3.0.0^2,^4]nona-1(6),8-dien-7-yl]acetamide]
- EC50 [1]: 0.009 nM
- CC50 at 4 days [2]: > 50 nM

Compound: Cc1cc(C2CCC(F)(F)CC2)nc2nc([C@H](Cc3cc(F)cc(F)c3)NC(=O)Cn3nc(C4CC4)c4c3C[C@@H]3C[C@H]43)n(-c3ccc(Cl)c4c(NS(C)(=O)=O)nn(CCN5CCC(C)(F)CC5)c34)c(=O)c12 (atropisomer, axis not shown; (P)) [Example 278, N-[(1S)-1-[(3P)-3-{4-chloro-1-[2-(4-fluoro-4-methylpiperidin-1-yl)ethyl]-3-methanesulfonamido-1H-indazol-7-yl}-7-(4,4-difluorocyclohexyl)-5-methyl-4-oxo-3H,4H-pyrido[2,3-d]pyrimidin-2-yl]-2-(3,5-difluorophenyl)ethyl]-2-[(2S,4S)-9-cyclopropyl-7,8-diazatricyclo[4.3.0.0^2,^4]nona-1(6),8-dien-7-yl]acetamide]
- EC50 [1]: 0.005 nM
- CC50 at 4 days [2]: > 50 nM

Compound: Cc1cc(C2CCC(F)(F)CC2)nc2nc([C@H](Cc3cc(F)cc(F)c3)NC(=O)Cn3nc(C4CC4)c4c3C[C@@H]3C[C@H]43)n(-c3ccc(Cl)c4c(NS(C)(=O)=O)nn(CCNC5COC5)c34)c(=O)c12 (atropisomer, axis not shown; (P)) [Example 279, N-[(1S)-1-[(3P)-3-(4-chloro-3-methanesulfonamido-1-{2-[(oxetan-3-yl)amino]ethyl}-1H-indazol-7-yl)-7-(4,4-difluorocyclohexyl)-5-methyl-4-oxo-3H,4H-pyrido[2,3-d]pyrimidin-2-yl]-2-(3,5-difluorophenyl)ethyl]-2-[(2S,4S)-9-cyclopropyl-7,8-diazatricyclo[4.3.0.0^2,^4]nona-1(6),8-dien-7-yl]acetamide]
- EC50 [1]: 0.036 nM
- CC50 at 4 days [2]: > 50 nM

Compound: Cc1cc(C2CCC(F)(F)CC2)nc2nc([C@H](Cc3cc(F)cc(F)c3)NC(=O)Cn3nc(C4CC4)c4c3C[C@@H]3C[C@H]43)n(-c3ccc(Cl)c4c(NS(C)(=O)=O)nn(CCN5C[C@@H](F)[C@@H](F)C5)c34)c(=O)c12 (atropisomer, axis not shown; (P)) [Example 281, N-[(1S)-1-[(3P)-3-(4-chloro-1-{2-[(3R,4S)-3,4-difluoropyrrolidin-1-yl]ethyl}-3-methanesulfonamido-1H-indazol-7-yl)-7-(4,4-difluorocyclohexyl)-5-methyl-4-oxo-3H,4H-pyrido[2,3-d]pyrimidin-2-yl]-2-(3,5-difluorophenyl)ethyl]-2-[(2S,4S)-9-cyclopropyl-7,8-diazatricyclo[4.3.0.0^2,^4]nona-1(6),8-dien-7-yl]acetamide]
- EC50 [1]: 0.011 nM
- CC50 at 4 days [2]: > 50 nM

Compound: Cc1cc(C2CCC(F)(F)CC2)nc2nc([C@H](Cc3cc(F)cc(F)c3)NC(=O)Cn3nc(C4CC4)c4c3C[C@@H]3C[C@H]43)n(-c3ccc(Cl)c4c(NS(C)(=O)=O)nn(CCN5CC(F)(F)C5)c34)c(=O)c12 (atropisomer, axis not shown; (P)) [Example 283, N-[(1S)-1-[(3P)-3-{4-chloro-1-[2-(3,3-difluoroazetidin-1-yl)ethyl]-3-methanesulfonamido-1H-indazol-7-yl}-7-(4,4-difluorocyclohexyl)-5-methyl-4-oxo-3H,4H-pyrido[2,3-d]pyrimidin-2-yl]-2-(3,5-difluorophenyl)ethyl]-2-[(2S,4S)-9-cyclopropyl-7,8-diazatricyclo[4.3.0.0^2,^4]nona-1(6),8-dien-7-yl]acetamide]
- EC50 [1]: 0.008 nM
- CC50 at 4 days [2]: > 50 nM

Compound: COCCCNc1cc(C2CCC(F)(F)CC2)nc2nc([C@H](Cc3cc(F)cc(F)c3)NC(=O)Cn3nc(C(F)F)c4c3C(F)(F)[C@@H]3C[C@H]43)n(-c3ccc(Cl)c4c(NS(C)(=O)=O)nn(CCCOC)c34)c(=O)c12 (atropisomer, axis not shown; (P)) [Example 285, N-[(1S)-1-[(3P)-3-[4-chloro-3-methanesulfonamido-1-(3-methoxypropyl)-1H-indazol-7-yl]-7-(4,4-difluorocyclohexyl)-5-[(3-methoxypropyl)amino]-4-oxo-3H,4H-pyrido[2,3-d]pyrimidin-2-yl]-2-(3,5-difluorophenyl)ethyl]-2-[(2S,4R)-9-(difluoromethyl)-5,5-difluoro-7,8-diazatricyclo[4.3.0.0^2,^4]nona-1(6),8-dien-7-yl]acetamide]
- EC50 [1]: 0.009 nM
- CC50 at 4 days [2]: > 50 nM

Compound: CS(=O)(=O)Nc1nn(CCN2C[C@H](F)C[C@H](F)C2)c2c(-n3c([C@H](Cc4cc(F)cc(F)c4)NC(=O)Cn4nc(C5CC5)c5c4C[C@@H]4C[C@H]54)nc4nc(C5CCC(F)(F)CC5)cc(C(F)F)c4c3=O)ccc(Cl)c12 (atropisomer, axis not shown; (P)) [Example 287, N-[(1S)-1-[(3P)-3-(4-chloro-1-{2-[(3R,5S)-3,5-difluoropiperidin-1-yl]ethyl}-3-methanesulfonamido-1H-indazol-7-yl)-7-(4,4-difluorocyclohexyl)-5-(difluoromethyl)-4-oxo-3H,4H-pyrido[2,3-d]pyrimidin-2-yl]-2-(3,5-difluorophenyl)ethyl]-2-[(2S,4S)-9-cyclopropyl-7,8-diazatricyclo[4.3.0.0^2,^4]nona-1(6),8-dien-7-yl]acetamide]
- EC50 [1]: 0.01 nM
- CC50 at 4 days [2]: > 50 nM

— patent US12594276B2, “Inhibitors of human immunodeficiency virus replication” (ViiV Healthcare UK (No.5) Limited, priority 2024, dated 2026)
